This note sets out measurements from ChEMBL document CHEMBL4321788, “Rational Design of Multitarget-Directed Ligands: Strategies and Emerging Paradigms” (J Med Chem, 2019).

For orientation: pKb means −log10 of the Kb, conventionally taken in molar units. Usually IC50 stands for the concentration that inhibits the measured activity by half. Broadly, the EC50 is the midpoint of the concentration-response curve. What is called Ki is a dissociation constant, usually derived from enzyme kinetics or from competition with a known ligand.

Where only a bound is given, the exact number is not on record here.

For assay [1], the target named is Histamine H1 receptor (Cavia porcellus) (UniProt P31389). In words: Binding affinity to histamine H1 receptor in guinea pig ileum incubated up to 20 mins. The format is tissue-based.
Assay [2] deals with Histamine H2 receptor (Cavia porcellus) (UniProt P47747). Kind of assay: Binding affinity to histamine H2 receptor in guinea pig right atrium.
The next assay addresses Lipoxygenase (Glycine max, UniProt Q39829). Kind of assay: Inhibition of soya bean LOX assessed as reduction in formation of 13-hydroperoxylinoleic acid using sodium linoleate as substrate.
In another assay the test system is Rattus norvegicus. Kind of assay: Antinociceptive activity in Wistar rat model of acetic-acid induced nociception pain assessed as reduction in writhes by measuring reduction in hind limb extension at 0.01 mmol/0.1kg, ip pretreated for 30 min followed by acetic-acid treatment and measured every 5 mins for 30 mins relative to control. The format is functional. The arrangement: scale not given: the % may be the effect or the level left.

The next assay concerns the target T1, Acetylcholinesterase (Mus musculus, UniProt P21836).
T1 sequence (P21836 whole entry): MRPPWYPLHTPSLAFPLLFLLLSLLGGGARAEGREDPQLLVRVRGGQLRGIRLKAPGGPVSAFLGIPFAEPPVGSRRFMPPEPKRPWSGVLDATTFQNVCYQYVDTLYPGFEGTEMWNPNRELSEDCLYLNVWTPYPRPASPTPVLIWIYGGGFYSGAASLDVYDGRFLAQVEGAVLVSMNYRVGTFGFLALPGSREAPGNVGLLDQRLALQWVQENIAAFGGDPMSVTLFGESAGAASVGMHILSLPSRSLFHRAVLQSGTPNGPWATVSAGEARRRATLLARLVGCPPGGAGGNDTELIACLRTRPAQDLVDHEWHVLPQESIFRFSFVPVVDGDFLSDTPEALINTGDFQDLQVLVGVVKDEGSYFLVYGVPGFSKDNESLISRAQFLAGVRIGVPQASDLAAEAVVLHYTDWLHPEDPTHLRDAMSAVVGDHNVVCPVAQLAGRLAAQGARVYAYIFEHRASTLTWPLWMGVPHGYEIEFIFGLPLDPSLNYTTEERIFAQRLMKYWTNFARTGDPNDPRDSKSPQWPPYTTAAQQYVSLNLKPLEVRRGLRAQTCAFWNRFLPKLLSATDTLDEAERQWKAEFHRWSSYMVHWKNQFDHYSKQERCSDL
In words: Inhibition of mouse brain AChE.

Assay [3] has as its target Sodium-dependent serotonin transporter (Rattus norvegicus, UniProt P31652). In words: Inhibition of rat synaptosome SERT.
The next assay concerns the target Histamine H3 receptor (Homo sapiens, UniProt Q9Y5N1). Kind of assay: Antagonist activity at human histamine H3 receptor stably expressed in HEK293 cells assessed as cAMP accumulation incubated for 60 mins by Eu-cAMP tracer based TR-FRET assay. The format is functional, cell-based.
Assay [4] deals with Amyloid-beta precursor protein (Homo sapiens, UniProt P05067). In words: Inhibition of self-induced aggregation of amyloid beta (1 to 42) (unknown origin) incubated for 24 hrs by TEM analysis.
A short description of assay [5]: Neuroprotective activity against tetracycline removal-induced cytotoxicity in human MC65 cells assessed as increase in cell viability incubated for 72 hrs by MTT assay. The format is functional, cell-based. The settings on record: MC65, 72 h.
Assay [6] can be described thus: Inhibition of ROS generation in human MC65 cells assessed as reduction in tetracycline removal-induced ROS level incubated for 48 hrs by DCFH-DA staining based flow cytometric analysis. The format is functional, cell-based. The settings on record: MC65, 48 h. A general note: Flow cytometry measures light scatter and fluorescence of single cells or particles in a stream.

A further assay is filed under the species Homo sapiens. In words: Antioxidant activity in human M17 cell lysate assessed as trolox equivalents of ABTS radical scavenging activity incubated up to 10 mins. The format is functional, subcellular.
A further assay addresses Substance-P receptor (Homo sapiens, UniProt P25103). In words: Displacement of [3H]Sar SP from human NK1 receptor expressed in CHO cells membranes. The format is cell membranes.
The next assay has as its target T2, Substance-K receptor (Homo sapiens, UniProt P21452).
T2 sequence (P21452 whole entry): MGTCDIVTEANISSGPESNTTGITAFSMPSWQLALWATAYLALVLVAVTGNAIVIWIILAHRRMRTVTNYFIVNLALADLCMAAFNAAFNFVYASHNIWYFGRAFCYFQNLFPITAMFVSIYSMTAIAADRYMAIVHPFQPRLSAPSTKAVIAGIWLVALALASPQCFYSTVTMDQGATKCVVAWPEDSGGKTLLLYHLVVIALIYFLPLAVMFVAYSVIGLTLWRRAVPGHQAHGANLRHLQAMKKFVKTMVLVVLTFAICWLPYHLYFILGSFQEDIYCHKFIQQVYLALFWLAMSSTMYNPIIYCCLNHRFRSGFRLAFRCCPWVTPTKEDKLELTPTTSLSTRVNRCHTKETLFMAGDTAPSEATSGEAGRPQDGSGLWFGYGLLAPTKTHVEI
In words: Displacement of [3H]NKA from human NK2 receptor expressed in CHO cells membranes. The format is cell membranes.

In the next assay the target is T3, Neuromedin-K receptor (Homo sapiens, UniProt P29371).
T3 sequence (P29371 whole entry): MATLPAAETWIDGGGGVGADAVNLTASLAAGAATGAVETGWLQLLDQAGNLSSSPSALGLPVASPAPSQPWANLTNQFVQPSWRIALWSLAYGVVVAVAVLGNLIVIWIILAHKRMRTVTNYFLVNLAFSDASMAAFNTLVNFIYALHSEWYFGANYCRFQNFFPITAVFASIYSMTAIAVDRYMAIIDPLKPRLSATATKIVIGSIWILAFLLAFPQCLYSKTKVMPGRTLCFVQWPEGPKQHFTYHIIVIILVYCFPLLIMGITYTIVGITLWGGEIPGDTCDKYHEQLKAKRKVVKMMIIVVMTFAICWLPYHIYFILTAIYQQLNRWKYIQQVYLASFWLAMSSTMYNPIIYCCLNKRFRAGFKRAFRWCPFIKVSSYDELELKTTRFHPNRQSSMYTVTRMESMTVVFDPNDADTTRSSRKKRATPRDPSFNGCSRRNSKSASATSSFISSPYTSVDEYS
In words: Displacement of [125I][MePhe]NKB from human NK3 receptor expressed in CHO cells membranes. The format is cell membranes. (In a radioligand displacement assay an active substance lowers the binding of a labelled ligand.)

Chain of Histamine H2 receptor (Cavia porcellus) (P47747 whole entry): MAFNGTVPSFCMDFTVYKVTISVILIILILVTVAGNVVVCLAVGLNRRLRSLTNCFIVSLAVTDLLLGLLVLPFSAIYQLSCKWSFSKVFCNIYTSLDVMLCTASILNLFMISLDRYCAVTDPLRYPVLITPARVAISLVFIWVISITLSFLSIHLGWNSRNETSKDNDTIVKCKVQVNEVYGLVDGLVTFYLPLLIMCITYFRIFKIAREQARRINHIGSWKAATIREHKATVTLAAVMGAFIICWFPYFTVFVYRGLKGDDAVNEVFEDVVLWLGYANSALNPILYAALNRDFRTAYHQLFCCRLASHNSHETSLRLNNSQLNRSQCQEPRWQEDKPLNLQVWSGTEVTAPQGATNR
Chain of Histamine H3 receptor (Q9Y5N1 whole entry): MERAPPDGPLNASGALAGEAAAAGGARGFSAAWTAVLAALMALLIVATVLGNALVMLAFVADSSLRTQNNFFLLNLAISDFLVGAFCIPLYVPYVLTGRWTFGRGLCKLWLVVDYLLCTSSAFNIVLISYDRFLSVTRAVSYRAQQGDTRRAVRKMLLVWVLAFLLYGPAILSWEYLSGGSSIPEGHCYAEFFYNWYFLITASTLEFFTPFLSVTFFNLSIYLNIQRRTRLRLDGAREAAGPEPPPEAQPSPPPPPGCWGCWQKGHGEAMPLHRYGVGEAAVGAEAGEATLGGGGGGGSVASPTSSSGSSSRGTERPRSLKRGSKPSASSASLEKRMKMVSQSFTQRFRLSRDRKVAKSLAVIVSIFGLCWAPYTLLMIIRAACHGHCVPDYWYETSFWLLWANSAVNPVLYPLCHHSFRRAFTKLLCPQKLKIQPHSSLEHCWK
Chain of Substance-P receptor (P25103 whole entry): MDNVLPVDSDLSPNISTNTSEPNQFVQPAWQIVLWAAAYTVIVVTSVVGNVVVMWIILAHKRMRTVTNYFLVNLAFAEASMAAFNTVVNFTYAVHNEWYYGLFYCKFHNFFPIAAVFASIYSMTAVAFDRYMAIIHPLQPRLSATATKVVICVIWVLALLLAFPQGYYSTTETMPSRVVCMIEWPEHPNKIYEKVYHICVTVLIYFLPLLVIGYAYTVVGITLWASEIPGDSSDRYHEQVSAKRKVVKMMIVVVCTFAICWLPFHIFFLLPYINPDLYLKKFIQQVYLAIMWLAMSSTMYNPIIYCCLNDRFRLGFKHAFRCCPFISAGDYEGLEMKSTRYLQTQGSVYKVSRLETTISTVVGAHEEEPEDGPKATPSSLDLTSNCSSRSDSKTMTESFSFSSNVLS
Chain of Amyloid-beta precursor protein (P05067 whole entry): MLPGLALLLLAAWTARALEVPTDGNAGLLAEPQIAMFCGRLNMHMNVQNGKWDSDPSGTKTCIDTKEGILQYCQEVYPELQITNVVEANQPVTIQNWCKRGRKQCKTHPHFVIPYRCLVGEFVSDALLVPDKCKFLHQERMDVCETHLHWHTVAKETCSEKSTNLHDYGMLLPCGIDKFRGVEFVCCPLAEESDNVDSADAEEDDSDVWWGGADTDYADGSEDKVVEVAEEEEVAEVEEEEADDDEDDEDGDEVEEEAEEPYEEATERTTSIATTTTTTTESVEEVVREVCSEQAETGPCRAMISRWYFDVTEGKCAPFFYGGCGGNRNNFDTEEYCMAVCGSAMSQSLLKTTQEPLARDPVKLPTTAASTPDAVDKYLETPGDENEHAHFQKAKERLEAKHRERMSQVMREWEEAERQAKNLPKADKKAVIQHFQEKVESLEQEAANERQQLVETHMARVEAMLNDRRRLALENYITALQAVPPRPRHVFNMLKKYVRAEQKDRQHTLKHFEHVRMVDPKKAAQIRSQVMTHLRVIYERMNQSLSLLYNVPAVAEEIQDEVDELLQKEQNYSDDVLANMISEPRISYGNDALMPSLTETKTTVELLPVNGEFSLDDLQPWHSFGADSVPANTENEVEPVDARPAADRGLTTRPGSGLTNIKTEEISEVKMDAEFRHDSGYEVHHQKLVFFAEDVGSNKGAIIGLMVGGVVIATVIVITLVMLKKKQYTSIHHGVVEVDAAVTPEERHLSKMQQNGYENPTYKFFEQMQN
Chain of Histamine H1 receptor (Cavia porcellus) (P31389 whole entry): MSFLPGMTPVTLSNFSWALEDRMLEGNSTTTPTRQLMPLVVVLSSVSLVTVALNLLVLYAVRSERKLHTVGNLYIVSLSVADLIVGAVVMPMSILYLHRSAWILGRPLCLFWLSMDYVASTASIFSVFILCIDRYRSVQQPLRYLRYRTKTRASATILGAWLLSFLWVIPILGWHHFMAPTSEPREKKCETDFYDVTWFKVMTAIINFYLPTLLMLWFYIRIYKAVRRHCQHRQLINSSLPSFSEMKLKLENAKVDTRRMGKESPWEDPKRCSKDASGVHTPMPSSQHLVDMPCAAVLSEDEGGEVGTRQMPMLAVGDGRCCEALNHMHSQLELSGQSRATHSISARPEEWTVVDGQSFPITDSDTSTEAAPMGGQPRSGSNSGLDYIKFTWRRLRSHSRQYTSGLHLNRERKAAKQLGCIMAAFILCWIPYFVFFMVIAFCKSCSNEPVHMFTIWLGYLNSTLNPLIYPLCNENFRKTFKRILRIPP
Chain of Sodium-dependent serotonin transporter (P31652 whole entry): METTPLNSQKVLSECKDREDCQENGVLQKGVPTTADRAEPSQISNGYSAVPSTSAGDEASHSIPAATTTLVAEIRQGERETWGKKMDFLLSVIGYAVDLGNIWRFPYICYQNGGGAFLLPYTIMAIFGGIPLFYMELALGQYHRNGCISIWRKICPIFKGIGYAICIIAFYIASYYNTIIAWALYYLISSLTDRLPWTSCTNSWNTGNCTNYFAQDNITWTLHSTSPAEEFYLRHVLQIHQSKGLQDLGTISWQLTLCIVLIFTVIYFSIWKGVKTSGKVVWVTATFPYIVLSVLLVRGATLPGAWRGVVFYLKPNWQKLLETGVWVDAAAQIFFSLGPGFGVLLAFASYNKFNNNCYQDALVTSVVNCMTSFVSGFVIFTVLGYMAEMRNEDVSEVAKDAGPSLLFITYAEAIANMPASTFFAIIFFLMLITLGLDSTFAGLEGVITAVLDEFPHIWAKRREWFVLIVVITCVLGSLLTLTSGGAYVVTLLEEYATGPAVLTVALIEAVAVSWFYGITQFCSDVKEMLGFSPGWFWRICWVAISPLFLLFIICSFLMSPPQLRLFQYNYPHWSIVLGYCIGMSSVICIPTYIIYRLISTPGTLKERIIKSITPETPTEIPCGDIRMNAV

Regarding `COc1ccc(CN(CCN(C)CCCCCCN/C(=N/C#N)NCCCOc2cccc(CN3CCCCC3)c2)c2ccccn2)cc1`, the figures for the pKb in assay [1] and in assay [2] were 8.42 and 6.43, respectively. The molecule `CN(CCCNC(=O)NCCCOc1ccc(CN2CCCCC2)cc1)CCC(c1ccc(F)cc1)c1ccccn1` (stereo not drawn) had a pKb in assay [2] of 6.68.

Turning to `CC(=O)Nc1cccc(OC(=O)/C=C/c2cccc(Oc3ccccc3)c2)c1`, the IC50 at Lipoxygenase was found to be 340 nM. In the assay with Rattus norvegicus, the Activity was 91 - 98.1%. For the molecule `CNCCC(Oc1ccc(C(F)(F)F)cc1)c1ccccc1` (stereo not drawn) [FLUOXETINE], the IC50 on Acetylcholinesterase was more than 10000 nM. Take `CCN(C)C(=O)Oc1cccc([C@H](C)N(C)C)c1` [RIVASTIGMINE]: the 50% inhibitory concentration (IC50) in assay [3] was more than 1000 nM.

For `CC(=O)Nc1ccc(O)cc1` [ACETAMINOPHEN], the Activity in the assay on Rattus norvegicus came out at 66%. For `O=C(O)/C=C/c1cccc(Oc2ccccc2)c1`, the IC50 at Lipoxygenase was 89000 nM. Take `CCN(CC)CCCOc1ccc(-n2ccc(=O)c(O)c2C)cc1`: the IC50 came to 12.8 nM at Histamine H3 receptor and 17200 nM in assay [4].

With `COc1ccc2[nH]cc(CCNC(=O)CC(=O)CCc3ccc(O)cc3)c2c1`, in [5], the concentration for a half-maximal effect (EC50) came out at 27.6 nM. Besides, in assay [6], the concentration for half-maximal inhibition (IC50) is 68 nM. For the molecule `CN(C)c1ccc(O)c(CNc2cccc3ccc(CO)nc23)c1`, the Activity in the assay listed under Homo sapiens amounted to 1.41. On the same count and under the same terms, the same measure for `Cc1c(C)c2c(c(C)c1O)CCC(C)(C(=O)O)O2` (stereo not drawn): 1. As for `CNC(=O)C[C@H]1CCCN(C2CCN(CC[C@@H](/C(CN(C)C(=O)c3cc(Cl)cc(Cl)c3)=N/OC)c3ccc(Cl)c(Cl)c3)CC2)C1`, the inhibition constant Ki at Substance-P receptor came out at 1.3 nM; on Substance-K receptor, 0.4 nM; at Neuromedin-K receptor it was 0.3 nM.
